Data set [1] addresses T1, Cathepsin G (Calbiochem, 219373) (Homo sapiens, UniProt P08311).
T1 construct: purchased Calbiochem 219373
T1 sequence (P08311 21-244): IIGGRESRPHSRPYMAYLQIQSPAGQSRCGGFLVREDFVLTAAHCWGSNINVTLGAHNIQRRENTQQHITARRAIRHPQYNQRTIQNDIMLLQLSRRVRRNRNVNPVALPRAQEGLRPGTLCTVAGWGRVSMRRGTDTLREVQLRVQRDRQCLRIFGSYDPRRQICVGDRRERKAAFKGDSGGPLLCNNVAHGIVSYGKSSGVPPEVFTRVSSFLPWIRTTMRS
Briefly: Selectivity study: cathepsin G (Suc-Ala-Ala-Pro-Phe-pNA). Format: biochemical. Particulars: 1 hour at 25° C., read-out: Cathepsins (IC50, nM) G. The method, then: (§1) Test 2: Selectivity Study
(§2) Selectivity study for the compounds of the present invention was performed using cathepsin C (Sigma, C8511), cathepsin G (Calbiochem, 219373), cathepsin H (Calbiochem, 219388), cathepsin L (Calbiochem, 219402), and cathepsin S (Eur. J. Biochem. 236, 558 (1996) as enzyme sources.
Cathepsin G (Calbiochem, 219373) was dissolved in 50 mM NaOAc and 150 mM NaCl buffer (pH 5.5). All inhibitors were prepared in dimethyl sulfoxide (DMSO). In vitro assays for cathepsin G were conducted with Suc-Ala-Ala-Pro-Phe-pNA (Calbiochem, 219407) as a substrate. Samples were pre-incubated for 10 minutes at 25° C. Reaction was initiated by the addition of enzyme to samples, which were then incubated for 1 hour at 25° C. The absorbance of p-nitroaniline released was monitored at 405 nm using spectrophotometer.
(§3) The concentrations of the test compounds, which inhibit 50% of cathepsin s C, G, H, L and S activity, are represented as IC50 in Table 2.

The target of data set [2] is T2, Cathepsin L (Calbiochem, 219402) (Homo sapiens, UniProt P07711).
T2 construct: purchased Calbiochem 219402
Put plainly: Selectivity study: cathepsin L (Z-Phe-Arg-AMC). To be noted: 1 hour at 25° C., read-out: Cathepsins (IC50, nM) L. Format: biochemical. The protocol:
as §1, §2
Cathepsin L (Calbiochem, 219402) was dissolved in 50 mM NaOAc buffer (pH 5.0). All inhibitors were prepared in dimethyl sulfoxide (DMSO). […] Samples were pre-incubated for 5 minutes at 25° C. Reaction was initiated by the addition of enzyme to samples, which were then incubated for 1 hour at 25° C. The fluorescence of AMC (7-amino-4-methylcoumarin) was monitored at 460 nm (excitation wavelength 360 nm), using fluorescence spectrophotometer.
as §3

In data set [3] the target is T3, Cathepsin C (Sigma, C8511) (Bos taurus, UniProt Q3ZCJ8).
T3 construct: purchased Sigma C8511
Put plainly: Selectivity study: cathepsin C (Gly-Phe-pNA). Format: biochemical. To be noted: 1 hour at 37° C., read-out: Cathepsins (IC50, nM) C. The protocol: as §1, §2
Cathepsin C (Sigma, C8511) was dissolved in D.W. buffer (pH 5.5). All inhibitors were prepared in dimethyl sulfoxide (DMSO). In vitro assays for cathepsin C were conducted with Gly-Phe-pNA (Sigma, G-0142) as a substrate. Samples were pre-incubated for 10 minutes at 37° C. Reaction was initiated by the addition of enzyme to samples, which were then incubated for 1 hour at 37° C. The absorbance of p-nitroaniline released was monitored at 405 nm using spectrophotometer.
as §3

The target of data set [4] is Recombinant human Cathepsin S (Homo sapiens, UniProt P25774). Briefly: Selectivity study: cathepsin S (Z-Val-Val-AMC). Format: biochemical. Particulars: 30 minutes at 37° C., read-out: Cathepsins (IC50, nM) S. The method, then: as §1, §2
Recombinant human Cathepsin S (Eur. J. Biochem. 236, 558 (1996) was dissolved in 0.1 M NaOAc 1 mM EDTA-4Na buffer (pH 5.5). All inhibitors were prepared in dimethyl sulfoxide (DMSO). In vitro assays for cathepsin S were conducted with Z-Val-Val-AMC (BACHEM, 1-1160) as a substrate. Samples were pre-incubated for 10 minutes at 4° C. Reaction was initiated by the addition of enzyme to samples, which were then incubated for 30 minutes at 37° C. The florescence of AMC (7-amino-4-methylcoumarin) released was monitored at 465 nm (excitation wavelength 360 nm), using fluorescence spectrophotometer.
as §3

The target of data set [5] is T4, Cathepsin H (Calbiochem, 219388) (Homo sapiens, UniProt P09668).
T4 construct: purchased Calbiochem 219388
T4 sequence (P09668 98-335): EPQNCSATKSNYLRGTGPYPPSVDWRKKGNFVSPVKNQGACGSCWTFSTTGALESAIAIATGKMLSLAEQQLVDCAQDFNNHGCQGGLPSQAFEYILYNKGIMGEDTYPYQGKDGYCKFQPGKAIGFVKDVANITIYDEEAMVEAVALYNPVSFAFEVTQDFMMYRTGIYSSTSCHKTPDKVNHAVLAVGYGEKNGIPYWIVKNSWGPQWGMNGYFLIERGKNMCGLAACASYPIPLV
Briefly: Selectivity study: cathepsin H (L-Arg-pNA). Format: biochemical. Particulars: 1 hour at 40° C., read-out: Cathepsins (IC50, nM) H. The method, then:
as §1, §2
Cathepsin H (Calbiochem, 219388) was dissolved in 20 mM NaOAc, 1 mM EDTA-2Na and 100 mM NaCl buffer (pH 4.6). All inhibitors were prepared dimethyl sulfoxide (DMSO). In vitro assays for cathepsin H were conducted with L-Arg-pNA (BACHEM, 1-1160) as a substrate. Samples were pre-incubated for 5 minutes at 40° C. Reaction was initiated by the addition of enzyme to samples, which were then incubated for 1 hour at 40° C. The absorbance of p-nitroaniline released was monitored at 405 nm using spectrophotometer.
as §3

Data set [6] addresses T5, Recombinant human cathepsin K (Homo sapiens, UniProt P43235).
T5 construct: made in house
T5 sequence (P43235 115-329): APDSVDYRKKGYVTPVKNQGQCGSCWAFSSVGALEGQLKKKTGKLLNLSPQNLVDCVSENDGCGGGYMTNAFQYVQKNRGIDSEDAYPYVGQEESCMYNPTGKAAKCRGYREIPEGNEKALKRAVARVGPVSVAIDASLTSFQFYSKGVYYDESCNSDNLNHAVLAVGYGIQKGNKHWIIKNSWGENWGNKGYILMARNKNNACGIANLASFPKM
Put plainly: Inhibition of cathepsin K activity (Z-Phe-Arg-AMC fluorescence assay). Format: biochemical. To be noted: 25 uM Z-Phe-Arg-AMC, pH 5.5, 1 hour at 37° C. In short, it runs like this: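 Z-Phe-Arg-AMC at 25 uM in 100 mM Na acetate pH 5.5 with 20 mM cysteine, 5 mM EDTA and 2% final DMSO; reaction started by adding enzyme, then 1 hour at 37° C. Fluorescence read at ex 360/em 460 nm; IC50 is the concentration giving 50% inhibition.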

Each structure is given as a SMILES string.

IC50 and melting point data for three compounds are collected here from patent US7342027B2 (Yuhan Corporation, priority 2002, dated 2008).

For orientation: IC50 means the midpoint of a concentration-inhibition curve. A word on the melting point: it is the temperature of the solid-liquid transition.

T3 sequence (Q3ZCJ8 25-463): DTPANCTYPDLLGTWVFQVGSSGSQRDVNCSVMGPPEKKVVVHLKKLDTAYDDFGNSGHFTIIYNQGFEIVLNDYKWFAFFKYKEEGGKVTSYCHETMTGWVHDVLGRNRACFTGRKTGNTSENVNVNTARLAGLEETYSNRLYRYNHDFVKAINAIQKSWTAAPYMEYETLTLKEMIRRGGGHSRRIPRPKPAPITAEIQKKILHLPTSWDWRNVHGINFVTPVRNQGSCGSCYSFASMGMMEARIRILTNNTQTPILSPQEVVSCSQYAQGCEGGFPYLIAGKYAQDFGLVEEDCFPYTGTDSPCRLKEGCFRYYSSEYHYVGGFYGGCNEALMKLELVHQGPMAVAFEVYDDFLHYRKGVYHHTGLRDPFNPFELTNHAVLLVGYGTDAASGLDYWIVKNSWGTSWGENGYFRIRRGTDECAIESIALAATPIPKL
Sequence of Recombinant human Cathepsin S (P25774 115-331): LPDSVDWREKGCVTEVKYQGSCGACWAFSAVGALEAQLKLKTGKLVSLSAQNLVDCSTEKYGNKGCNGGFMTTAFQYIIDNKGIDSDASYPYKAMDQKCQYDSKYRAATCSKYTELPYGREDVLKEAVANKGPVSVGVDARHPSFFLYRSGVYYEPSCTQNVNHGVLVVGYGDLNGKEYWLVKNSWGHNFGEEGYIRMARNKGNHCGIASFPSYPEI
T2 sequence (P07711 114-333): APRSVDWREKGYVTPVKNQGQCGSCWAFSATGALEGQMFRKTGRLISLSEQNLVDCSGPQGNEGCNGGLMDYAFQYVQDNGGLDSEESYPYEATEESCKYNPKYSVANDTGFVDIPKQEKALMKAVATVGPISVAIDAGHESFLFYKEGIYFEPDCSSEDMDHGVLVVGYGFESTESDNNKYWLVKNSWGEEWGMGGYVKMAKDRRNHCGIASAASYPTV

In the case of `CC(C)S(=O)(=O)c1ccccc1N1CCC(NC(=O)C2(NC(=O)c3ccco3)CCCCC2)C(=O)C1` (stereo not shown) [Example 80, 4-[N-[1-[N-(furan-2-ylcarbonyl)amino]cyclohexanecarbonyl]amino]-1-(2-isopropylsulfonylphenyl)piperidin-3-one], the IC50 was over 1000 nM in data set [1]; 381 nM in data set [2]; over 1000 nM in data set [3]; 109 nM in data set [4]; over 1000 nM in data set [5]; 5.05 nM in data set [6].
Compound `CS(=O)(=O)c1ccccc1N1CCC(NC(=O)C2(NC(=O)c3cc4ccccc4o3)CCCCC2)C(=O)C1` (stereo not shown) [Example 1, 4-[N-[1-[N-(benzofuran-2-ylcarbonyl)amino]cyclohexanecarbonyl]amino]-1-(2-methylsulfonylphenyl)piperidin-3-one] returned a melting point of 219 to 220 °C. Besides, the IC50 in data set [1] was over 240 nM. For the same compound, the concentration for half-maximal inhibition (IC50) in data set [2] came to 138 nM. Moreover, in data set [3], the IC50 was determined as 382 nM. Moreover, the IC50 in data set [4] was found to be 133 nM. The IC50 in data set [5] was over 240 nM. Also, in data set [6], the concentration for half-maximal inhibition (IC50) was found to be 8.17 nM.
For the compound `CS(=O)(=O)c1cc(F)ccc1N1CCC(NC(=O)C2(NC(=O)c3ccco3)CCCCC2)C(=O)C1` (stereo not shown) [Example 83, 4-[N-[1-[N-(furan-2-ylcarbonyl)amino]cyclohexanecarbonyl]amino]-1-(4-fluoro-2-methylsulfonylphenyl)piperidin-3-one], the IC50 is over 810 nM in data set [1]; 352 nM in data set [2]; over 810 nM in data set [3]; 177 nM in data set [4]; over 810 nM in data set [5]; 2.69 nM in data set [6].
